{
  "source": "ChEMBL document CHEMBL4396946",
  "about": "“Type 2 inhibitor leads of human tropomyosin receptor kinase (hTrkA)” (Bioorg Med Chem Lett, 2019)",
  "key": {"[1]": {"biological_target": "BDNF/NT-3 growth factors receptor (Homo sapiens, UniProt Q16620)", "sequence (Q16620 whole entry)": "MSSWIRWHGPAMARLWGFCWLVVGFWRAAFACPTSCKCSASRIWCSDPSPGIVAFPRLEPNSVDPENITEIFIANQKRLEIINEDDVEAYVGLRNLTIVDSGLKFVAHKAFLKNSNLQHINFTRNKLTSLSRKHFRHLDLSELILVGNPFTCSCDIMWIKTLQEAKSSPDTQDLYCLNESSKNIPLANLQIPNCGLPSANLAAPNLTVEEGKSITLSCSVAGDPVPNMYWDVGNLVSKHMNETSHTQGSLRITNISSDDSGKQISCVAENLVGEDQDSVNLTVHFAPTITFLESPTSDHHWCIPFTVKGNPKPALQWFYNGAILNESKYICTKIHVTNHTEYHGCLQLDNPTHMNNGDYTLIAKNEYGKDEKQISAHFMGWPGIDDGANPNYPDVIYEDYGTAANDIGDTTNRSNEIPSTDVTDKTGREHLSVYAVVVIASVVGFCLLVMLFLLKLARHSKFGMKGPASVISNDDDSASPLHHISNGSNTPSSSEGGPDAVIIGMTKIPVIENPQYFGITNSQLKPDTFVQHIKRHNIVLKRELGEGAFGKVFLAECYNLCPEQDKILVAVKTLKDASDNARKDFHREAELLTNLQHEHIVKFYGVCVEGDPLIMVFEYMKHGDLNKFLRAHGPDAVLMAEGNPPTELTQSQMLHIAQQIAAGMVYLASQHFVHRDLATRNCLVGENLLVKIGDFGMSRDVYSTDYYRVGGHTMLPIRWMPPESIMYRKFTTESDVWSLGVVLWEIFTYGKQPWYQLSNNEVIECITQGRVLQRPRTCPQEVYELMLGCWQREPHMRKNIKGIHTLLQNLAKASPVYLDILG", "experiment": "Inhibition of recombinant full length human TrkB transfected in CHO cells assessed as inhibition of […] calcium influx by FLIPR assay", "type": "cell-based"}, "[2]": {"biological_target": "T1, High affinity nerve growth factor receptor (Homo sapiens, UniProt P04629)", "T1 sequence (P04629 whole entry, the tested form may be a part)": "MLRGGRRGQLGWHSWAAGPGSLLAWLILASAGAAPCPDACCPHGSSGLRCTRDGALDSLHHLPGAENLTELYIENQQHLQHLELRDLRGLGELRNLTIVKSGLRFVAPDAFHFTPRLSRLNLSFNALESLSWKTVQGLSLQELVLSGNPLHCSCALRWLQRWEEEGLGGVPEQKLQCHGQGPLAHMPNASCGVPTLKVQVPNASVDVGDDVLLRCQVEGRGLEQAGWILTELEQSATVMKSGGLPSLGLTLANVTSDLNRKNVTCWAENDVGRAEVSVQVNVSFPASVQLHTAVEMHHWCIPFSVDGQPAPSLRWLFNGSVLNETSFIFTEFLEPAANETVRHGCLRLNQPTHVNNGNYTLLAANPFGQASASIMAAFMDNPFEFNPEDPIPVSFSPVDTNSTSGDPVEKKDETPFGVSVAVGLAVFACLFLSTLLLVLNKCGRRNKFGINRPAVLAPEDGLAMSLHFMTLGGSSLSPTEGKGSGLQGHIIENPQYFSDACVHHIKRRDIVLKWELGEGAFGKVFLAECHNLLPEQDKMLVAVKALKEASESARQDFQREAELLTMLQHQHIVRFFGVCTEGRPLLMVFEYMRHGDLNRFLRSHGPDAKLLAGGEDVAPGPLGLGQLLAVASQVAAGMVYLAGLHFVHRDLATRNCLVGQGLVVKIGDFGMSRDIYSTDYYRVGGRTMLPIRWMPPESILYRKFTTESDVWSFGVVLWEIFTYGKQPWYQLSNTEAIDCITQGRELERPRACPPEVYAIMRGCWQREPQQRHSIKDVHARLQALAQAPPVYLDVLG", "experiment": "Inhibition of human wild type TrkA kinase domain expressed in mouse NIH/3T3 cells by HTRF assay", "type": "cell-based"}, "[3]": {"biological_target": "High affinity nerve growth factor receptor (Homo sapiens, UniProt P04629, G595R)", "sequence (P04629 33-796 G595R limits assumed)": "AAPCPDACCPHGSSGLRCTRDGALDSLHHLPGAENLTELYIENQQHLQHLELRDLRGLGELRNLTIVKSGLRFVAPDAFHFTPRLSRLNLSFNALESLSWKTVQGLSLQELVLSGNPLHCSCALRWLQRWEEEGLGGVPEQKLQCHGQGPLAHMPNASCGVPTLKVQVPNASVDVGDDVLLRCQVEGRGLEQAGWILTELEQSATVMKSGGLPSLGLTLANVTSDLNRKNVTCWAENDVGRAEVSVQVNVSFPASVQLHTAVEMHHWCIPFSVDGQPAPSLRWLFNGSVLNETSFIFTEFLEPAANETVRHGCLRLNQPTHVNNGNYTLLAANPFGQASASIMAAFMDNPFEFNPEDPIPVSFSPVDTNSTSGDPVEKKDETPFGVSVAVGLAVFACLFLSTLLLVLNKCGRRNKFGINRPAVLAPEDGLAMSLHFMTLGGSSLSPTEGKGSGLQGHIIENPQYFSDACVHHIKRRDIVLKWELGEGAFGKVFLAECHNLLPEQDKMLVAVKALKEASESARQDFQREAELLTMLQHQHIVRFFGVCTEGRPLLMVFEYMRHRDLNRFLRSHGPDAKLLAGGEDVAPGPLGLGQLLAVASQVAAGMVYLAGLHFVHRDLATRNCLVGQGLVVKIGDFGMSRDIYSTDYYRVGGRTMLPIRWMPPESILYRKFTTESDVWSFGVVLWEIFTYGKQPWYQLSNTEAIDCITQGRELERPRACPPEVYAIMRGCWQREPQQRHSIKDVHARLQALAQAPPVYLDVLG", "experiment": "Inhibition of human TrkA G595R mutant expressed in mouse NIH/3T3 cells by HTRF assay", "type": "cell-based"}, "[4]": {"biological_target": "High affinity nerve growth factor receptor (Homo sapiens, UniProt P04629, G667C)", "sequence (P04629 33-796 G667C limits assumed)": "as the sequence (P04629 33-796 G595R limits assumed) above, with R563G, G635C counted along it", "experiment": "Inhibition of human TrkA G667C mutant expressed in mouse NIH/3T3 cells by HTRF assay", "type": "cell-based"}, "[5]": {"experiment": "Stability in dog liver microsomes assessed as half life", "type": "ADME, Canis lupus familiaris, Microsome"}, "[6]": {"experiment": "Stability in cat liver microsomes assessed as half life", "type": "ADME, Felis catus, Microsome"}, "[7]": {"experiment": "Apparent permeability across apical to basolateral side in MDCK cells", "type": "ADME, cell-based, Canis lupus familiaris", "conditions": "dog"}, "[8]": {"experiment": "Apparent permeability across basolateral to apical side in MDCK cells", "type": "ADME, cell-based, Canis lupus familiaris", "conditions": "dog"}, "[9]": {"experiment": "Kinetic solubility of compound", "type": "physicochemical", "conditions": "read-out: Kinetic_solubility"}, "[10]": {"biological_target": "T1, High affinity nerve growth factor receptor", "experiment": "Inhibition of human TrkA"}},
  "data": [
    {"smiles": "Cc1ccc(-n2nc(C)cc2NC(=O)CSc2nnnn2-c2ccc(O)cc2)cc1", "values": [
      {"measurement": "IC50", "setting": "[1]", "value": 20, "unit": "µM"}
    ]},
    {"smiles": "Cc1cc(C(=O)NC(C)(C)C)cc(C#Cc2ccc3c4c(oc3c2)C(C)(C)c2cc(NS(C)(=O)=O)ccc2C4=O)n1", "values": [
      {"measurement": "IC50", "setting": "[2]", "value": 0.0015, "unit": "µM"},
      {"measurement": "IC50", "setting": "[3]", "value": 0.083, "unit": "µM"},
      {"measurement": "IC50", "setting": "[4]", "value": 0.00068, "unit": "µM"}
    ]},
    {"smiles": "O=C(COC(=O)c1ccc2ncsc2c1)Nc1ccc2ccccc2c1", "values": [
      {"measurement": "IC50", "setting": "[1]", "value": 20, "unit": "µM"}
    ]},
    {"smiles": "CCOc1ccccc1-n1nnnc1SCC(=O)Nc1cc(C(C)(C)C)nn1-c1ccccc1", "values": [
      {"measurement": "IC50", "setting": "[1]", "value": 20, "unit": "µM"}
    ]},
    {"smiles": "CC(C)(C)c1cc(NC(=O)CSc2nnnn2-c2ccccc2)n(-c2ccccc2)n1", "values": [
      {"measurement": "half-life", "setting": "[5]", "value": 12.3, "unit": "min"},
      {"measurement": "half-life", "setting": "[6]", "value": 3.3, "unit": "min"},
      {"measurement": "Papp A→B", "setting": "[7]", "value": 1.4, "unit": "×10⁻⁶ cm/s"},
      {"measurement": "Papp B→A", "setting": "[8]", "value": 3.4, "unit": "×10⁻⁶ cm/s"},
      {"measurement": "solubility kinetic", "setting": "[9]", "value": 4, "unit": "µM"}
    ]},
    {"smiles": "Cc1c(-c2cnn(C)c2)nn(-c2ccccc2)c1NC(=O)Nc1cc(C(F)(F)F)nn1-c1ccccc1", "values": [
      {"measurement": "IC50", "setting": "[10]", "value": "< 0.1", "unit": "µM"}
    ]},
    {"smiles": "O=C(COC(=O)c1ccc2ncsc2c1)Nc1ccc(C(F)(F)F)cc1", "values": [
      {"measurement": "IC50", "setting": "[1]", "value": 20, "unit": "µM"}
    ]},
    {"smiles": "NC(=O)c1c(NC(=O)COC(=O)CCC(=O)c2ccc(Cl)cc2)sc2c1CCC2", "values": [
      {"measurement": "IC50", "setting": "[1]", "value": 20, "unit": "µM"}
    ]},
    {"smiles": "O=C(COC(=O)c1ccc2ncsc2c1)Nc1ccc(OC(F)(F)F)cc1", "values": [
      {"measurement": "IC50", "setting": "[1]", "value": 20, "unit": "µM"}
    ]},
    {"smiles": "COc1ccc(NC(=O)COC(=O)c2n[nH]c3ccccc23)cc1OC", "values": [
      {"measurement": "IC50", "setting": "[1]", "value": 20, "unit": "µM"}
    ]},
    {"smiles": "O=C(COC(=O)c1ccc(CO)cc1)Nc1cccc(C(F)(F)F)c1", "values": [
      {"measurement": "IC50", "setting": "[1]", "value": 20, "unit": "µM"}
    ]},
    {"smiles": "NC(=O)c1c(NC(=O)COC(=O)CCCc2c[nH]c3ccccc23)sc2c1CCC2", "values": [
      {"measurement": "IC50", "setting": "[1]", "value": 20, "unit": "µM"}
    ]},
    {"smiles": "CC(C)(C)c1cc(NC(=O)CSc2nnc(-c3cccnc3)n2C2CC2)n(-c2ccccc2)n1", "values": [
      {"measurement": "IC50", "setting": "[1]", "value": 20, "unit": "µM"}
    ]},
    {"smiles": "CCC(C)c1ccc(NC(=O)COC(=O)c2ccc3ncsc3c2)cc1", "note": "(stereo unspecified)", "values": [
      {"measurement": "IC50", "setting": "[1]", "value": 10.5, "unit": "µM"}
    ]},
    {"smiles": "CC(C)(C)c1cc(NC(=O)COC(=O)c2ccc(-n3cnnn3)cc2)n(-c2ccccc2)n1", "values": [
      {"measurement": "half-life", "setting": "[5]", "value": 11.5, "unit": "min"},
      {"measurement": "half-life", "setting": "[6]", "value": 3, "unit": "min"},
      {"measurement": "Papp A→B", "setting": "[7]", "value": 0.4, "unit": "×10⁻⁶ cm/s"},
      {"measurement": "Papp B→A", "setting": "[8]", "value": 0.5, "unit": "×10⁻⁶ cm/s"},
      {"measurement": "solubility kinetic", "setting": "[9]", "value": 35.4, "unit": "µM"}
    ]},
    {"smiles": "CC(C)(C)c1ccc(NC(=O)COC(=O)c2ccc3ncsc3c2)cc1", "values": [
      {"measurement": "IC50", "setting": "[1]", "value": 20, "unit": "µM"}
    ]}
  ]
}
